{
  "source": "paper PMC5218480",
  "about": "(PLoS ONE, 2017)",
  "tested_on": "MV-4-11 cells",
  "experiment": "Gene expression microarray analysis (Affymetrix PrimeView) and GSEA",
  "format": "cell-based, human",
  "set-up": "RFU PODN (11730768_x_at) / Fold change /veh PODN (11730768_x_at) / RFU LINC00158 (11744669_a_at) / Fold change /veh LINC00158 (11744669_a_at) / RFU DUSP10 (11751237_a_at) / Fold change /veh DUSP10 (11751237_a_at) / RFU ID3 (11757404_x_at) / Fold change /veh ID3 (11757404_x_at) / RFU PLEKHG5 (11737974_s_at) / Fold change /veh PLEKHG5 (11737974_s_at) / RFU LRRC4B (11730491_at) / Fold change /veh LRRC4B (11730491_at) / RFU GIMAP4 (11747438_a_at) / Fold change /veh GIMAP4 (11747438_a_at) / RFU KRT8 (11758183_x_at) / Fold change /veh KRT8 (11758183_x_at) / RFU CNN1 (11734310_a_at) / Fold change /veh CNN1 (11734310_a_at) / RFU VPS37D (11726825_at) / Fold change /veh VPS37D (11726825_at) / RFU C10orf10 (11716522_x_at) / Fold change /veh C10orf10 (11716522_x_at) / RFU KIR2DL2 /// KIR2DL4 /// KIR2DL5A /// KIR2DL5B /// KIR2DS1 /// KIR2DS2 /// KIR2DS3 /// KIR2DS4 /// KIR3DL3 /// KIR3DL3 /// KIR3DS1 (11738374_at) / Fold change /veh KIR2DL2 /// KIR2DL4 /// KIR2DL5A /// KIR2DL5B /// KIR2DS1 /// KIR2DS2 /// KIR2DS3 /// KIR2DS4 /// KIR3DL3 /// KIR3DL3 /// KIR3DS1 (11738374_at) / RFU C1QL1 (11718748_at) / Fold change /veh C1QL1 (11718748_at) / RFU TMPRSS4 (11747572_a_at) / Fold change /veh TMPRSS4 (11747572_a_at) / RFU HAMP (11756126_x_at) / Fold change /veh HAMP (11756126_x_at) / RFU RNFT2 (11725882_a_at) / Fold change /veh RNFT2 (11725882_a_at) / RFU NR4A2 (11747474_a_at) / Fold change /veh NR4A2 (11747474_a_at) / RFU ABCC12 (11746883_a_at) / Fold change /veh ABCC12 (11746883_a_at) / RFU TMEM136 (11760407_x_at) / Fold change /veh TMEM136 (11760407_x_at) / RFU CLDN22 /// WWC2 (11732394_at) / Fold change /veh CLDN22 /// WWC2 (11732394_at) / RFU HLA-DPB1 (11760878_x_at) / Fold change /veh HLA-DPB1 (11760878_x_at) / RFU SPINT1 (11716480_a_at) / Fold change /veh SPINT1 (11716480_a_at) / RFU GAP43 (11754022_s_at) / Fold change /veh GAP43 (11754022_s_at) / RFU A4GNT (11735810_at) / Fold change /veh A4GNT (11735810_at) / RFU PRB3 (11715151_x_at) / Fold change /veh PRB3 (11715151_x_at) / RFU TUBB4B (11761932_at) / Fold change /veh TUBB4B (11761932_at) / RFU CAPN14 (11732068_a_at) / Fold change /veh CAPN14 (11732068_a_at) / RFU TMCC2 (11721928_a_at) / Fold change /veh TMCC2 (11721928_a_at) / RFU IRGQ (11745062_a_at) / Fold change /veh IRGQ (11745062_a_at) / RFU FAM174B (11720279_a_at) / Fold change /veh FAM174B (11720279_a_at) / RFU TMPRSS4 (11748680_a_at) / Fold change /veh TMPRSS4 (11748680_a_at) / RFU FAM212B (11763350_a_at) / Fold change /veh FAM212B (11763350_a_at) / RFU PLEKHG5 (11743358_a_at) / Fold change /veh PLEKHG5 (11743358_a_at) / RFU ZSCAN30 (11745921_a_at) / Fold change /veh ZSCAN30 (11745921_a_at) / RFU CMKLR1 (11741424_a_at) / Fold change /veh CMKLR1 (11741424_a_at) / RFU LOC101060620 /// MAPK8IP1 (11723275_at) / Fold change /veh LOC101060620 /// MAPK8IP1 (11723275_at) / RFU SPTSSB (11747773_x_at) / Fold change /veh SPTSSB (11747773_x_at) / RFU PRSS12 (11739890_at) / Fold change /veh PRSS12 (11739890_at) / RFU BIN1 (11741810_x_at) / Fold change /veh BIN1 (11741810_x_at) / RFU WNT11 (11732464_a_at) / Fold change /veh WNT11 (11732464_a_at) / RFU C10orf10 (11716521_a_at) / Fold change /veh C10orf10 (11716521_a_at) / RFU C5orf56 (11738089_at) / Fold change /veh C5orf56 (11738089_at) / RFU CYB561 (11721691_x_at) / Fold change /veh CYB561 (11721691_x_at) / RFU ANKRD19P (11752326_a_at) / Fold change /veh ANKRD19P (11752326_a_at) / RFU OR2T12 /// OR2T33 /// OR2T8 (11738714_s_at) / Fold change /veh OR2T12 /// OR2T33 /// OR2T8 (11738714_s_at) / RFU VCAN (11748164_a_at) / Fold change /veh VCAN (11748164_a_at) / RFU JSRP1 (11732532_at) / Fold change /veh JSRP1 (11732532_at) / RFU KRTAP10-11 (11738290_x_at) / Fold change /veh KRTAP10-11 (11738290_x_at) / RFU MYO3A (11730013_a_at) / Fold change /veh MYO3A (11730013_a_at) / RFU EBF3 (11725865_a_at) / Fold change /veh EBF3 (11725865_a_at) / RFU CAMK2N1 (11719241_x_at) / Fold change /veh CAMK2N1 (11719241_x_at) / RFU C5orf56 (11738088_a_at) / Fold change /veh C5orf56 (11738088_a_at) / RFU OLFML3 (11715873_a_at) / Fold change /veh OLFML3 (11715873_a_at) / RFU LOC100653217 /// NTM (11731650_a_at) / Fold change /veh LOC100653217 /// NTM (11731650_a_at) / RFU MAPK11 (11762145_a_at) / Fold change /veh MAPK11 (11762145_a_at) / RFU FIZ1 (11724087_x_at) / Fold change /veh FIZ1 (11724087_x_at) / RFU OASL (11726364_x_at) / Fold change /veh OASL (11726364_x_at) / RFU SOX15 (11748057_x_at) / Fold change /veh SOX15 (11748057_x_at) / RFU CD79A (11719716_a_at) / Fold change /veh CD79A (11719716_a_at) / RFU HIST1H1D (11736915_at) / Fold change /veh HIST1H1D (11736915_at) / RFU CASKIN2 (11723855_a_at) / Fold change /veh CASKIN2 (11723855_a_at) / RFU LOC730098 (11760151_x_at) / Fold change /veh LOC730098 (11760151_x_at) / RFU OR4N2 (11742367_at) / Fold change /veh OR4N2 (11742367_at) / RFU PRRT2 (11749266_a_at) / Fold change /veh PRRT2 (11749266_a_at) / RFU SNX32 (11753110_a_at) / Fold change /veh SNX32 (11753110_a_at) / RFU CDHR5 (11726645_a_at) / Fold change /veh CDHR5 (11726645_a_at) / RFU RCAN1 (11760418_a_at) / Fold change /veh RCAN1 (11760418_a_at) / RFU FAM167A (11723789_a_at) / Fold change /veh FAM167A (11723789_a_at) / RFU FAM26E (11764081_at) / Fold change /veh FAM26E (11764081_at) / RFU ISYNA1 (11749810_s_at) / Fold change /veh ISYNA1 (11749810_s_at) / RFU ACY1 (11761880_at) / Fold change /veh ACY1 (11761880_at) / RFU 11764098_at / Fold change /veh 11764098_at / RFU SAMD14 (11745864_x_at) / Fold change /veh SAMD14 (11745864_x_at) / RFU NPB (11741838_a_at) / Fold change /veh NPB (11741838_a_at) / RFU TMPRSS6 (11731388_a_at) / Fold change /veh TMPRSS6 (11731388_a_at) / RFU KRTAP10-2 (11738614_at) / Fold change /veh KRTAP10-2 (11738614_at) / RFU ARHGAP8 /// PRR5-ARHGAP8 (11727945_x_at) / Fold change /veh ARHGAP8 /// PRR5-ARHGAP8 (11727945_x_at) / RFU KRTAP5-7 /// NADSYN1 (11734609_at) / Fold change /veh KRTAP5-7 /// NADSYN1 (11734609_at) / RFU RASL12 (11751679_a_at) / Fold change /veh RASL12 (11751679_a_at) / RFU CDKN2B (11736163_a_at) / Fold change /veh CDKN2B (11736163_a_at) / RFU PRF1 (11729649_at) / Fold change /veh PRF1 (11729649_at) / RFU, ZNF638 /// ZNF638-IT1 / Fold change vs veh, ZNF638 /// ZNF638-IT1 / RFU, PANK3 / Fold change vs veh, PANK3 / RFU, SH3YL1 / Fold change vs veh, SH3YL1 / RFU, ZEB2 / Fold change vs veh, ZEB2 / RFU, NRIP1 / Fold change vs veh, NRIP1 / RFU, PTTG1IP / Fold change vs veh, PTTG1IP / RFU, CAPN2 / Fold change vs veh, CAPN2 / RFU, MED14 / Fold change vs veh, MED14 / RFU, SNORA58 / Fold change vs veh, SNORA58 / RFU, C1orf63 / Fold change vs veh, C1orf63 / RFU, LRRFIP1 / Fold change vs veh, LRRFIP1 / RFU, NDUFAF7 / Fold change vs veh, NDUFAF7 / RFU, SLC12A2 / Fold change vs veh, SLC12A2 / RFU, IBTK / Fold change vs veh, IBTK / RFU, ESF1 / Fold change vs veh, ESF1 / Fold change vs veh, TMEM50B / RFU, TAOK1 / Fold change vs veh, TAOK1 / RFU, ACBD3 / Fold change vs veh, ACBD3 / RFU, TMA16 / Fold change vs veh, TMA16 / RFU, RWDD3 / Fold change vs veh, RWDD3 / RFU, BCAT1 / Fold change vs veh, BCAT1 / RFU, EDEM3 / Fold change vs veh, EDEM3 / RFU, TMEM33 / Fold change vs veh, TMEM33 / RFU, WDR75 / Fold change vs veh, WDR75 / RFU, AHCTF1 / Fold change vs veh, AHCTF1 / RFU, TFRC / Fold change vs veh, TFRC / RFU, ZDHHC17 / Fold change vs veh, ZDHHC17 / RFU, NOM1 / Fold change vs veh, NOM1 / RFU, ARL8B / Fold change vs veh, ARL8B / RFU, ZBTB11 / Fold change vs veh, ZBTB11 / RFU, TAMM41 / Fold change vs veh, TAMM41 / RFU, KIAA1704 /// LOC100996395 / Fold change vs veh, KIAA1704 /// LOC100996395 / RFU, ING1 / Fold change vs veh, ING1 / RFU, TRMT61B / Fold change vs veh, TRMT61B / RFU, FUBP3 / Fold change vs veh, FUBP3 / RFU, TP53 / Fold change vs veh, TP53 / RFU, TNKS2 / Fold change vs veh, TNKS2 / RFU, ZFP14 / Fold change vs veh, ZFP14 / RFU, ACTR2 / Fold change vs veh, ACTR2 / RFU, PPP3R1 / Fold change vs veh, PPP3R1 / RFU, PIK3R1 / Fold change vs veh, PIK3R1 / RFU, HNRNPA1 / Fold change vs veh, HNRNPA1 / RFU, RNF170 / Fold change vs veh, RNF170 / RFU, ZNF28 / Fold change vs veh, ZNF28 / RFU, RNGTT / Fold change vs veh, RNGTT / RFU, OGT / Fold change vs veh, OGT / RFU, BRD1 / Fold change vs veh, BRD1 / RFU, MARS / Fold change vs veh, MARS / RFU, ZNF655 / Fold change vs veh, ZNF655 / RFU, FAHD1 / Fold change vs veh, FAHD1 / RFU, BDP1 / Fold change vs veh, BDP1 / RFU, LRRCC1 / Fold change vs veh, LRRCC1 / RFU, ARID1A / Fold change vs veh, ARID1A / RFU, ZNF146 / Fold change vs veh, ZNF146 / RFU, ZNF330 / Fold change vs veh, ZNF330 / RFU, GPN3 / Fold change vs veh, GPN3 / RFU, C9orf123 / Fold change vs veh, C9orf123 / RFU, N4BP2L2 / Fold change vs veh, N4BP2L2 / RFU, ARFIP1 / Fold change vs veh, ARFIP1 / RFU, FAM179B / Fold change vs veh, FAM179B / RFU, BCL10 / Fold change vs veh, BCL10 / RFU, UHRF1BP1L / Fold change vs veh, UHRF1BP1L / RFU, BET1 / Fold change vs veh, BET1 / RFU, CNOT2 / Fold change vs veh, CNOT2 / RFU, ZNF268 / Fold change vs veh, ZNF268 / Fold change vs veh, ZNF507 / RFU, DGCR2 / Fold change vs veh, DGCR2 / RFU, WDSUB1 / Fold change vs veh, WDSUB1 / Fold change vs veh, HSP90B1 /// MIR3652 / RFU, ADSS / Fold change vs veh, ADSS / RFU, GK / Fold change vs veh, GK / RFU, ZNF148 / Fold change vs veh, ZNF148 / RFU, TAF9 / Fold change vs veh, TAF9 / RFU, SLC1A5 / Fold change vs veh, SLC1A5 / RFU, SLMO2 / Fold change vs veh, SLMO2 / RFU, ABCC4 / Fold change vs veh, ABCC4 / RFU, LOC101060439 /// RAP1B / Fold change vs veh, LOC101060439 /// RAP1B / RFU, RFX7 / Fold change vs veh, RFX7 / RFU, GTPBP10 / Fold change vs veh, GTPBP10 / RFU, CNEP1R1 / Fold change vs veh, CNEP1R1 / RFU, BIVM-ERCC5 /// ERCC5 / Fold change vs veh, BIVM-ERCC5 /// ERCC5 / RFU, ILF3 / Fold change vs veh, ILF3 / RFU 11762660_at / Fold change /veh 11762660_at / RFU VCAN (11757783_s_at) / Fold change /veh VCAN (11757783_s_at) / RFU DDX43 (11728927_at) / Fold change /veh DDX43 (11728927_at) / RFU KRT8 (11758188_x_at) / Fold change /veh KRT8 (11758188_x_at) / RFU NKD1 (11759106_at) / Fold change /veh NKD1 (11759106_at) / RFU SRD5A1 (11742802_a_at) / Fold change /veh SRD5A1 (11742802_a_at) / RFU TPSAB1 /// TPSB2 (11721975_s_at) / Fold change /veh TPSAB1 /// TPSB2 (11721975_s_at) / RFU GSTM3 (11746129_a_at) / Fold change /veh GSTM3 (11746129_a_at) / RFU IL23R (11737362_x_at) / Fold change /veh IL23R (11737362_x_at) / RFU TMEM51 (11727254_a_at) / Fold change /veh TMEM51 (11727254_a_at) / RFU PIWIL2 (11732686_x_at) / Fold change /veh PIWIL2 (11732686_x_at) / RFU ORM1 (11744905_x_at) / Fold change /veh ORM1 (11744905_x_at) / RFU CCDC152 (11743942_at) / Fold change /veh CCDC152 (11743942_at) / RFU ECM1 (11717891_a_at) / Fold change /veh ECM1 (11717891_a_at) / RFU IL23R (11748794_a_at) / Fold change /veh IL23R (11748794_a_at) / RFU TNFAIP8L3 (11732012_x_at) / Fold change /veh TNFAIP8L3 (11732012_x_at) / RFU MBOAT4 (11741988_at) / Fold change /veh MBOAT4 (11741988_at) / RFU 11764193_at / Fold change /veh 11764193_at / RFU TMEM53 (11763286_at) / Fold change /veh TMEM53 (11763286_at) / RFU MAGEB2 (11727129_at) / Fold change /veh MAGEB2 (11727129_at) / RFU TMEM200A (11744735_a_at) / Fold change /veh TMEM200A (11744735_a_at) / RFU CCDC152 (11751479_a_at) / Fold change /veh CCDC152 (11751479_a_at) / RFU FAM211A (11726209_a_at) / Fold change /veh FAM211A (11726209_a_at) / RFU RGS16 (11746705_a_at) / Fold change /veh RGS16 (11746705_a_at) / RFU VCAN (11755009_s_at) / Fold change /veh VCAN (11755009_s_at) / RFU RHOB (11743442_s_at) / Fold change /veh RHOB (11743442_s_at) / RFU RGS16 (11720943_a_at) / Fold change /veh RGS16 (11720943_a_at) / RFU RGS16 (11720944_at) / Fold change /veh RGS16 (11720944_at) / RFU, VPS4B / Fold change vs veh, VPS4B / RFU, CREB1 / Fold change vs veh, CREB1 / RFU, DNAJC13 / Fold change vs veh, DNAJC13 / RFU, GNAQ / Fold change vs veh, GNAQ / RFU, CDK5R1 / Fold change vs veh, CDK5R1 / RFU, ZRANB3 / Fold change vs veh, ZRANB3 / RFU, CUL4A / Fold change vs veh, CUL4A / RFU, CCNY / Fold change vs veh, CCNY / RFU, UFL1 / Fold change vs veh, UFL1 / RFU, COG3 / Fold change vs veh, COG3 / RFU, DIAPH2 / Fold change vs veh, DIAPH2 / RFU, SKA2 / Fold change vs veh, SKA2 / RFU, AFF3 / Fold change vs veh, AFF3 / RFU, LMF1 / Fold change vs veh, LMF1 / RFU, IPO11 / Fold change vs veh, IPO11 / RFU, DFFB / Fold change vs veh, DFFB / RFU, FOXP1 / Fold change vs veh, FOXP1 / RFU, CARD8 / Fold change vs veh, CARD8 / RFU, STRN3 / Fold change vs veh, STRN3 / RFU, ADK / Fold change vs veh, ADK / RFU, RASSF2 / Fold change vs veh, RASSF2 / RFU, WIPF1 / Fold change vs veh, WIPF1 / RFU, LARP1B / Fold change vs veh, LARP1B / RFU, RASA1 / Fold change vs veh, RASA1 / RFU, RB1 / Fold change vs veh, RB1 / RFU, PPFIA1 / Fold change vs veh, PPFIA1 / RFU, MAT2A / Fold change vs veh, MAT2A / RFU, CCT5 / Fold change vs veh, CCT5 / RFU, WDR92 / Fold change vs veh, WDR92 / RFU, CUX1 / Fold change vs veh, CUX1 / RFU, TTC7A / Fold change vs veh, TTC7A / RFU, TMEM135 / Fold change vs veh, TMEM135 / RFU, DEPTOR / Fold change vs veh, DEPTOR / RFU, CPM / Fold change vs veh, CPM / RFU, DNAJB6 / Fold change vs veh, DNAJB6 / RFU, CACNA2D3 / Fold change vs veh, CACNA2D3 / RFU, DTX4 / Fold change vs veh, DTX4 / RFU, TFCP2 / Fold change vs veh, TFCP2 / RFU, GMCL1 /// GMCL1P1 / Fold change vs veh, GMCL1 /// GMCL1P1 / RFU, AEBP2 / Fold change vs veh, AEBP2 / RFU, SNHG1 /// SNORD22 /// SNORD25 /// SNORD26 /// SNORD27 /// SNORD28 /// SNORD29 /// SNORD31 / Fold change vs veh, SNHG1 /// SNORD22 /// SNORD25 /// SNORD26 /// SNORD27 /// SNORD28 /// SNORD29 /// SNORD31 / Fold change (Aza/veh), C12orf56 (ProbeSet 11735607_a_at) / Fold change (ACY-1035/veh), C12orf56 (ProbeSet 11735607_a_at) / Fold change (Aza/veh), FGFR1OP (ProbeSet 11751329_s_at) / Fold change (ACY-1035/veh), FGFR1OP (ProbeSet 11751329_s_at) / Fold change (Aza/veh), VPS36 (ProbeSet 11739960_a_at) / Fold change (ACY-1035/veh), VPS36 (ProbeSet 11739960_a_at) / RFU SYPL1 (11715823_x_at) / Fold change /veh SYPL1 (11715823_x_at) / RFU IGFBP7 (11715501_s_at) / Fold change /veh IGFBP7 (11715501_s_at) / RFU REEP3 (11722064_at) / Fold change /veh REEP3 (11722064_at) / RFU IGLL1 (11728026_x_at) / Fold change /veh IGLL1 (11728026_x_at): dose or concentration left out as unconfirmed",
  "conditions": "MV-4-11 cells, 48 hours",
  "data": [
    {"smiles": "Nc1ccc(-c2cccs2)cc1NC(=O)c1ccc2c(c1)cc(C1CC1)n2CCN1CCOCC1", "note": "[ACY-1035]", "values": [
      {"measurement": "RFU FAM174B (11720279_a_at)", "value": 24.40, "unit": "RFU"}
    ]}
  ]
}
